Active and inactive are the calls of the source.
How the values were obtained:
Type in all cases: functional
[1] = biological target: T1, Sentrin-specific protease 8 (Homo sapiens, UniProt Q96LD8); assay: SENP8 protease inhibitors, SAR follow-up, biochemical, luminescence (AID 504501)
T1 sequence (Q96LD8 whole entry): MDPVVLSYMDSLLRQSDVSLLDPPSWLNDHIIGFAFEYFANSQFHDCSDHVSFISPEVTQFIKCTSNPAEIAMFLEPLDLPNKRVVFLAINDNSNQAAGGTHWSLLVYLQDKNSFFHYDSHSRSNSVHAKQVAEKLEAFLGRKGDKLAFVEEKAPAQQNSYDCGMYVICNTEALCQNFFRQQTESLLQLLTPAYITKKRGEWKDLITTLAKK

[2] = biological target: T2, Sentrin-specific protease 6 (Homo sapiens, UniProt Q9GZR1); assay: SAR Analysis of small molecule inhibitors of Sentrin-specific protease 6 (SENP6) using a Luminescent assay. [Related pubchem assays (depositor defined):AID2582, AID2599]
T2 sequence (Q9GZR1 whole entry): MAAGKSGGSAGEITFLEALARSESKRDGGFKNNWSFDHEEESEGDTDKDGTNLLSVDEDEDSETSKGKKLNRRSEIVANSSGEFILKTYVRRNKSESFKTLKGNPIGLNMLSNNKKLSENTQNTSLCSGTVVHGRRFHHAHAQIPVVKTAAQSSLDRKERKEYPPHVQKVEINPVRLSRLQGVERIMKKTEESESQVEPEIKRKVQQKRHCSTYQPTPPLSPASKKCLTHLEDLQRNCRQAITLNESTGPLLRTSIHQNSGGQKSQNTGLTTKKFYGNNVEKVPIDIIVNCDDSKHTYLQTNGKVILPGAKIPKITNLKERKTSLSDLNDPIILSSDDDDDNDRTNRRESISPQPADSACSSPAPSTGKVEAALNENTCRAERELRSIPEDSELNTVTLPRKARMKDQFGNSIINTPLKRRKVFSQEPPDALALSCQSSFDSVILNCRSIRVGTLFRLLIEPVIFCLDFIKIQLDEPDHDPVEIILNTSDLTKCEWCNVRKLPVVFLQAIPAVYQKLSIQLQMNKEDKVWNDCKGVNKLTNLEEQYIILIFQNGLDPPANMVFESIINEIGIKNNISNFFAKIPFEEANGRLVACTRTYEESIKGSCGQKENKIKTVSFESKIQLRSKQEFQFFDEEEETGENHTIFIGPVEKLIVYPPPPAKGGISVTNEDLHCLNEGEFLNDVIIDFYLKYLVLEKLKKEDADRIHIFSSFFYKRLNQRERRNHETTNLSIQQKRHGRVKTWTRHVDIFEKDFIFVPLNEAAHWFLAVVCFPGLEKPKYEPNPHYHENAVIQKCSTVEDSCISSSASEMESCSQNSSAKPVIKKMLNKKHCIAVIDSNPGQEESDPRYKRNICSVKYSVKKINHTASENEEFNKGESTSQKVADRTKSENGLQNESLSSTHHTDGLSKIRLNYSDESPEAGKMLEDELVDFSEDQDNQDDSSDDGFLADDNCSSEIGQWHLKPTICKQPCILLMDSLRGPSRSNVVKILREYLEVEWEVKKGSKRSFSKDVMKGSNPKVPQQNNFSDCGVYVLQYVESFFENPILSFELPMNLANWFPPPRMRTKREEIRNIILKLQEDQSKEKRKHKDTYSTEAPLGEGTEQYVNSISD

[3] = biological target: BDNF/NT-3 growth factors receptor (Homo sapiens, UniProt Q16620);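 also: NTRK2 measured as one member of a broad kinome-wide kinase profiling panel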
BDNF/NT-3 growth factors receptor, sequence (Q16620 whole entry): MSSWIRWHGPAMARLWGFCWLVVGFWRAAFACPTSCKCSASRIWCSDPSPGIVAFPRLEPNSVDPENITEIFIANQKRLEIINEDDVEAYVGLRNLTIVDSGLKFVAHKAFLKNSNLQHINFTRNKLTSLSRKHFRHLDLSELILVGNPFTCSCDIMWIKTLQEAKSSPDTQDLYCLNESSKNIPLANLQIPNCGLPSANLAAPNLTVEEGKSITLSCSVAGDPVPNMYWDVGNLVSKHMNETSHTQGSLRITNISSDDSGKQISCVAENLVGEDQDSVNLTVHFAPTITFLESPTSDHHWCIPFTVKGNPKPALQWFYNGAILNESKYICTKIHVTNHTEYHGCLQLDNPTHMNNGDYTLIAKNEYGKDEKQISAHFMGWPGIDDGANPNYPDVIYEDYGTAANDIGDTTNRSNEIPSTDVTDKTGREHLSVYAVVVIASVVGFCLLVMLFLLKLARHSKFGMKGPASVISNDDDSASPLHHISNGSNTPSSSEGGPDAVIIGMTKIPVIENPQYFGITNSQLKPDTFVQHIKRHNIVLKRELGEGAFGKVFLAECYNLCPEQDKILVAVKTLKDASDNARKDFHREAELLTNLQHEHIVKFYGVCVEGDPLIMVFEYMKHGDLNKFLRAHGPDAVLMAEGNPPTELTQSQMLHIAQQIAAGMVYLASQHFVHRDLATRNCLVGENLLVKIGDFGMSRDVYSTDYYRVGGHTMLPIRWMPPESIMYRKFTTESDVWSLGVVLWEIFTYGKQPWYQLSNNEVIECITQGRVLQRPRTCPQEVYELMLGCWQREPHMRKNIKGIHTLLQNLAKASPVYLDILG

[4] = biological target: High affinity nerve growth factor receptor (Homo sapiens, UniProt P04629);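 also: NTRK1 tested as one member of a kinome-wide profiling panel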
[5] = biological target: Inhibitor of nuclear factor kappa-B kinase subunit epsilon (Homo sapiens, UniProt Q14164); assay: Navigating the Kinome. Panel member name: IKBKE
[6] = biological target: Mitogen-activated protein kinase kinase kinase kinase 2 (Homo sapiens, UniProt Q12851);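 also: measured as one member of a kinome-wide kinase panel, with MAP4K2 as the panel entry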
[7] = biological target: Tyrosine-protein kinase receptor TYRO3 (Homo sapiens, UniProt Q06418);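 also: TYRO3 value obtained as one member of a kinome-wide profiling panel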
Tyrosine-protein kinase receptor TYRO3, sequence (Q06418 whole entry): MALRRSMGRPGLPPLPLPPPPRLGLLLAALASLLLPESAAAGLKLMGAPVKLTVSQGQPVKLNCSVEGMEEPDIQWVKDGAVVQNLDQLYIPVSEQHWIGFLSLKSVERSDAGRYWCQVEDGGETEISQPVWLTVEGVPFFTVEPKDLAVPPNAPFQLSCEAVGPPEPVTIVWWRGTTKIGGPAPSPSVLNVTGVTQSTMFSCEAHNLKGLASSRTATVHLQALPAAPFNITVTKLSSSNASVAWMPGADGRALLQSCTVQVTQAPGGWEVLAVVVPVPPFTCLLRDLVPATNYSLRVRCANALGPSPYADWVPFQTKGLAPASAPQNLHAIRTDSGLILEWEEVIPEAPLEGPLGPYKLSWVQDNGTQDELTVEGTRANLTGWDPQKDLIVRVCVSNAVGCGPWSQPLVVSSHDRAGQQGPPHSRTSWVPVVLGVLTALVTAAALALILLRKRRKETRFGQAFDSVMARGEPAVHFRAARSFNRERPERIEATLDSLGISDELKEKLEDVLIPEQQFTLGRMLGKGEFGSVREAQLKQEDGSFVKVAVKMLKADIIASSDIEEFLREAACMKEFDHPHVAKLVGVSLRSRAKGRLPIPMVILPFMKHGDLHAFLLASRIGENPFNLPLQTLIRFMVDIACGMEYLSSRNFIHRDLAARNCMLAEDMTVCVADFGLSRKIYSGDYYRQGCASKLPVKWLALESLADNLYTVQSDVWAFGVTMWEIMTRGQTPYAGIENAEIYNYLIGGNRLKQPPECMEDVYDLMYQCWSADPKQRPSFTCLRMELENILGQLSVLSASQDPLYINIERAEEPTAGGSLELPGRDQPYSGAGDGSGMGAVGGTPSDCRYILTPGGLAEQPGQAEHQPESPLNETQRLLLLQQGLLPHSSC

[8] = biological target: Calcium/calmodulin-dependent protein kinase type II subunit alpha (Homo sapiens, UniProt Q9UQM7); assay: Navigating the Kinome. Panel member name: CAMK2A
[9] = biological target: Receptor-type tyrosine-protein kinase FLT3 (Homo sapiens, UniProt P36888);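 also: FLT3 was tested as one member of a kinome-wide kinase panel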
Receptor-type tyrosine-protein kinase FLT3, sequence (P36888 whole entry): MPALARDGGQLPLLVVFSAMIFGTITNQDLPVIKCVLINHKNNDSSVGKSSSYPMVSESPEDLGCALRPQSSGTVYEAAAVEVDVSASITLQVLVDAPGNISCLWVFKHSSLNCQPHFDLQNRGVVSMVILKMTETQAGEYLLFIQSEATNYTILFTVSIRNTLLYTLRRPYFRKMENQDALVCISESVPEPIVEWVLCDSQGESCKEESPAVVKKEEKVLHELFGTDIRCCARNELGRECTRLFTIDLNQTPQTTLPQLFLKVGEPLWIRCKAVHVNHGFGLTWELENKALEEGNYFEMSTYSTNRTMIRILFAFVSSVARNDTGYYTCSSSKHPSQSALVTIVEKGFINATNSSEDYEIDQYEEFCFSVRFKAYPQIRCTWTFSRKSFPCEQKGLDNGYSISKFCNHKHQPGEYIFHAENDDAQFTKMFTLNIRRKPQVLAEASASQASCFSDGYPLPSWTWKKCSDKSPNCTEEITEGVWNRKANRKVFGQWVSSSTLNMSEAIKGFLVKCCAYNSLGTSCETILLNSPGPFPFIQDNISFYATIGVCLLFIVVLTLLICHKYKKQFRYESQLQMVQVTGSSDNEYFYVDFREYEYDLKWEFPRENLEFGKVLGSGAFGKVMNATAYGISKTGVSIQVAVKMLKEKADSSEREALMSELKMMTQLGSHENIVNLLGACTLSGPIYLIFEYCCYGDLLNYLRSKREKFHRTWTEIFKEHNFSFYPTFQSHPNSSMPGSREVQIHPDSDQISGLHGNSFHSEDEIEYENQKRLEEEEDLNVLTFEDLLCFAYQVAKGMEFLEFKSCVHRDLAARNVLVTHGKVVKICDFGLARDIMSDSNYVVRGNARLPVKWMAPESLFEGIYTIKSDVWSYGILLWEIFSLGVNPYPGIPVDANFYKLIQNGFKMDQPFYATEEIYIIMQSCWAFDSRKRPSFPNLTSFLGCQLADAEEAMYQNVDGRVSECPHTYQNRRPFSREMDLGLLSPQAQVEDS

[10] = biological target: cAMP-dependent protein kinase catalytic subunit PRKX (Homo sapiens, UniProt P51817)
[11] = biological target: Insulin-like growth factor 1 receptor (Homo sapiens, UniProt P08069); assay: Navigating the Kinome. Panel member name: IGF1R
Insulin-like growth factor 1 receptor, sequence (P08069 31-736 limits assumed): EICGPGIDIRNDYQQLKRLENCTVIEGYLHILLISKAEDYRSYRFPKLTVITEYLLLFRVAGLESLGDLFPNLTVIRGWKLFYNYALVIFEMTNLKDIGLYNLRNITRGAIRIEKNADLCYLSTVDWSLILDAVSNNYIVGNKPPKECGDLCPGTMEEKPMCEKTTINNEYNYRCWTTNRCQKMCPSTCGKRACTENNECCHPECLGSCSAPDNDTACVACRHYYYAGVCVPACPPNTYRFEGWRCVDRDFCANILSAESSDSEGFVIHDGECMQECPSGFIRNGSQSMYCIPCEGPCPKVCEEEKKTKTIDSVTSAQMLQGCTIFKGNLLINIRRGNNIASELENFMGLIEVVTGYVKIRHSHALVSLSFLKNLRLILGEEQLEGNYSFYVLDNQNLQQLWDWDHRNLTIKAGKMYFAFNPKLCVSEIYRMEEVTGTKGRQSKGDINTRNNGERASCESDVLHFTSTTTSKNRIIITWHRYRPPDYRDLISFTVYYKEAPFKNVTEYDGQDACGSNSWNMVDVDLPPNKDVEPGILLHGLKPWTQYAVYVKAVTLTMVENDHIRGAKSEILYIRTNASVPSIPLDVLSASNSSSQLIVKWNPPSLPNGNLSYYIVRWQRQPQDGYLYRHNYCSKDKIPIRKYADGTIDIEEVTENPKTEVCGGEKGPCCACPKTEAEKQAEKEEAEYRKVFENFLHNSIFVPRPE
Insulin-like growth factor 1 receptor, sequence (P08069 741-1367 limits assumed): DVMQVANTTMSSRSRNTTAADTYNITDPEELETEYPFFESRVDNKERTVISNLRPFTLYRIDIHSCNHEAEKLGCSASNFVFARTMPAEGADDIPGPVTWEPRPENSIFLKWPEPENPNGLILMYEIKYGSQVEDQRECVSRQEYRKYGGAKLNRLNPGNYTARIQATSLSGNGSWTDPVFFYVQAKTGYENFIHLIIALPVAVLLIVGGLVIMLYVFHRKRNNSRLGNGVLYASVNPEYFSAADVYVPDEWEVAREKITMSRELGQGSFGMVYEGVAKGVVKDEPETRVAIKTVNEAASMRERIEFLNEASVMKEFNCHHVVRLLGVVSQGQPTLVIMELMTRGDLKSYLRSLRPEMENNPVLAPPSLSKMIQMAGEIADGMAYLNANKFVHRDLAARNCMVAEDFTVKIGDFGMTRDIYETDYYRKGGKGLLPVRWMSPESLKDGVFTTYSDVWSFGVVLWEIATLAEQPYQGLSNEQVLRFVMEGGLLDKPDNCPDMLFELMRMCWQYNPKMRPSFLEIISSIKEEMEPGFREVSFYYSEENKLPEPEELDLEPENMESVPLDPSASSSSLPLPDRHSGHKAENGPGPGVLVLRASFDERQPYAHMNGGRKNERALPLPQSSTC

[12] = biological target: Cyclin-dependent kinase 8 (Homo sapiens, UniProt P49336); assay: Navigating the Kinome. Panel member name: CDK8
[13] = biological target: Mitogen-activated protein kinase 8 (Homo sapiens, UniProt P45983);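 also: value comes from one member of a kinome-wide kinase profiling panel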
Mitogen-activated protein kinase 8, sequence (P45983 whole entry): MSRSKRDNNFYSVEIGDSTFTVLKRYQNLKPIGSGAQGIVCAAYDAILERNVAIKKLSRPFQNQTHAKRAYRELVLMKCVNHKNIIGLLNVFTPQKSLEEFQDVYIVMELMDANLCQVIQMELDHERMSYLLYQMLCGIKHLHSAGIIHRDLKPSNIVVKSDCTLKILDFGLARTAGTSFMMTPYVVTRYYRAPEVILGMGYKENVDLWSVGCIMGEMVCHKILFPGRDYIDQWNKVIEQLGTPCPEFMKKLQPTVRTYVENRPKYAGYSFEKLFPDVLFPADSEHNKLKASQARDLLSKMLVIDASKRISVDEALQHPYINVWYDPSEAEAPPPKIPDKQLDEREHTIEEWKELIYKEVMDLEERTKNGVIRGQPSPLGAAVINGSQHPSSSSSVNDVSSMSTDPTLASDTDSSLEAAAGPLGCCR

[14] = biological target: Ribosomal protein S6 kinase alpha-3 (Homo sapiens, UniProt P51812);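 also: measured within a kinome-wide profiling panel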
[15] = biological target: Mitogen-activated protein kinase 14 (Homo sapiens, UniProt Q16539);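 also: part of a kinome-wide panel, MAPK14 entry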
[16] = biological target: Serine/threonine-protein kinase pim-1 (Homo sapiens, UniProt P11309)
Serine/threonine-protein kinase pim-1, sequence (P11309 whole entry): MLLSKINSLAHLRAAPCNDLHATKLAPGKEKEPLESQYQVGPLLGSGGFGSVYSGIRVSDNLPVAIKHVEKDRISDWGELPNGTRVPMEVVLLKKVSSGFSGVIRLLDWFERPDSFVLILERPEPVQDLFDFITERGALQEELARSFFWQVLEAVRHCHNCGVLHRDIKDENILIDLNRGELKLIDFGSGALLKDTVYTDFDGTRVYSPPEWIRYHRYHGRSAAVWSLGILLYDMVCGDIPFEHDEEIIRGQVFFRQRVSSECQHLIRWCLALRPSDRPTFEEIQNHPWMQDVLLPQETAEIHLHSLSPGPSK

[17] = biological target: Protein kinase C theta type (Homo sapiens, UniProt Q04759); assay: Navigating the Kinome. Panel member name: PRKCQ
[18] = biological target: Leucine-rich repeat serine/threonine-protein kinase 2 (Homo sapiens, UniProt Q5S007);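 also: value from a broad kinome-wide panel profiling study in which LRRK2 was one of the kinases tested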
[19] = biological target: C-C chemokine receptor type 6 (Homo sapiens, UniProt P51684); assay: CCR6 receptor antagonists, dose response, cell-based, luminescent beta-arrestin readout (AID 504728)
Melanocortin receptor 4 = Melanocortin receptor 4 (Homo sapiens, UniProt P32245); assay: MC4R antagonist potency on cAMP, dose response, cell-based, TR-FRET, biased antagonists (AID 602298);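 also: antagonist potency against agonist-stimulated cAMP production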
[20] = nonselective inhibitors of cellular cAMP signaling, dose response, counter-screen for MC4R biased antagonist project, cell-based, TR-FRET cAMP detection (AID 602305);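 also: U2OS cells stimulated with forskolin near its EC80 as the cAMP inducer; potency is for inhibition of forskolin-stimulated cAMP signaling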
[21] = biological target: Matrix metalloproteinase-14 (Homo sapiens, UniProt P50281); assay: Dose Response confirmation of uHTS hits for a small molecule inhibitors of MT1-MMP activation in a fluorescence assay set 1.
[22] = Luminescence Cell-Based Dose Response HTS to Identify Inhibitors of 5'UTR Stem-Loop Driven Prion Protein mRNA Translation in H4 Neuroglioblastoma Cells. [Related pubchem assays: 1827 (Project Summary), 1813 (Primary HTS)]

Cc1ccc(NC(=O)COc2cccc(/C=C3\SC(=S)N(CCC(=O)O)C3=O)c2)cc1Cl
IC50 [1]: > 99 µM (inactive)
IC50 [2]: 5.06 µM (active)

COc1cccc(C(C)NC(=O)c2ccc(-c3ccncc3)s2)c1 (stereo not drawn)
Ki [3]: > 3.98 µM (inactive)
Ki [4]: > 3.16 µM (inactive)
Ki [5]: > 3.16 µM (inactive)
Ki [6]: > 2.51 µM (inactive)
Ki [7]: > 3.16 µM (inactive)
Ki [8]: > 3.98 µM (inactive)
Ki [9]: > 3.16 µM (inactive)
Ki [10]: 2 µM (active)
Ki [11]: > 2.51 µM (inactive)
Ki [12]: 3.16 µM (active)
Ki [13]: > 5.01 µM (inactive)
Ki [14]: 1.58 µM (active)
Ki [15]: > 3.98 µM (inactive)
Ki [16]: > 6.31 µM (inactive)
Ki [17]: 0.316 µM (active)
Ki [18]: > 2.51 µM (inactive)

O=Nc1c(-c2c(O)[nH]c3cc(Br)ccc23)[nH]c2ccccc12
IC50 [19]: > 66.6 µM (inactive)
IC50 (Melanocortin receptor 4): 6.37 µM (active)
IC50 [20]: > 64.6 µM (inactive)
IC50 [21]: 1.78 µM (active)
EC50 [22]: > 120 µM (not active)

— ChEMBL document CHEMBL1201862, “PubChem BioAssay data set” (2004)
